In patent US20220362151A1, “LIPOSOME FORMULATION” (ROSI CHARNI AS, priority 2019, published 2022):
Where a name gives a salt, the structure may show the parent alone.

Tests used:
NB4 cell line = assay: WST-1 viability assay, fatty acids dissolved in DMSO; format: cell-based; conditions: 48 hours
Experimental: NB4 cells at a concentration of 0.1×10^5 cells/mL were incubated with 37.5, 75, 150 and 300 μM of TTA, 2-tr-TTA and PA dissolved in DMSO for 48 hours. Cell viability was assessed with WST-1 assay after 4 hours of incubation, and the absorption was related to the DMSO-control. Cell viability is presented as percentage of DMSO-control (100%). The assay was performed with triplicates for each concentration of the individual SBFA and the result is presented as mean of the triplicates±SD, n=1.
(§1) As a preliminary test, NB4 was exposed to TTA, 2-tr-TTA and PA dissolved in DMSO in concentrations between 37.5 to 300 μM for 48 hours. […] It was decided to not try higher concentrations of TTA PA and 2-tr-TTA dissolved in DMSO because of DMSO's cellular toxicity. In this project, one aim was to compare TTA with N-TTA and 2-tr-N-TTA. […] Compared to DMSO-control there was no significant decrease in cell viability after treatment with B SFAs dissolved in DMSO (p>0.05).

Solubility in solvents = format: physicochemical
Experimental: Hydrogenated egg phosphatidylcholine (HEPC), cholesterol (CHO) and fatty acid compound (PA, N-TTA and TTA) were weighed out separately and dissolved in chloroform. N-TTA is not soluble in chloroform alone and was therefore dissolved in a 1:1 mixture of methanol and chloroform. The dissolved lipids were mixed in a molar ratio of 1.81 HEPC:1CHO and 0.5-2 PA/N-TTA/TTA in a 100 or 250 mL Duran round bottom flasks. Next, a thin lipid film was made by slowly evaporating the solvents by using Laborota 4000 rotary evaporator at light vacuum, 200 mbar, and 60 rpm for 1.5-2.5 hours depending on the volume of solvents. To ensure a solvent-free lipid film, full vacuum (0 mbar) was applied the last 30 minutes.
as §1

SMILES	cell viability (percentage of DMSO-control), WST-1 (NB4 cell line; NB4, 37.5-300 μM dissolved in DMSO, n=1, p>0.05)	metabolic activity (WST-1), trend as presented in FIG. 1 (NB4 cell line; NB4, 37.5-300 μM in DMSO, stimulating effect especially at 75 μM)	solubility in DMSO (Solubility in solvents)	solubility in chloroform (Solubility in solvents; chloroform alone, dissolved in 1:1 methanol and chloroform)
CC#CCCCCCCCCCCCSCC(=O)O [2-tr-TTA, 2-(Tetradec-12-yn-1-ylthio)acetic acid]	lack of significant antiproliferative effect	stimulating effect		
CC#CCCCCCCCCCCCNCC(=O)O [2-trN-TTA, Tetradec-12-yn-1-ylglycine hydrochloride]			seemingly insoluble	
CCCCCCCCCCCCCCNCC(=O)O [N-TTA, N-tetradecylglycine]			seemingly insoluble	not soluble
